The target of assay [1] is T1, flag-tagged HIF1α (AA 786-826) / His6-tagged p300 (AA 323-423) complex (Homo sapiens, UniProt Q09472).
T1 construct: His6-tagged p300 (AA 323-423); made in house; host or cells: E. coli (pETDuet vector)
Put plainly: HIF1α p300 displacement assay (TR FRET, +CHAPS). The format is binding. The note with it: read-out: IC50 (nM) (HIF1α_p300 Displacement + CHAPS). The procedure:
The ability of peptides to displace HIF1α c-terminal trans-activation domain from p300-CH was measured by a TR FRET assay. A complex of flag-tagged HIF1α (AA 786-826) and His6-tagged p300 (AA 323-423) was co-expressed using pETDuet vector (EMDMillipore, Bellrica Mass.) and purified from E. coli in the presence of 0.1 mM ZnSO4. The complex was diluted to 300 nM final in complete assay media and competitor peptides were added. The complete assay media contained 150 mM NaCl (Sigma +S5150 or equivalent), 20 mM HEPES pH 7.4 (Boston Bioproducts, Ashland, Mass.; #BB-2076), 7.5 mM CHAPS (Thermo #28300 or equivalent), and 1 mM DTT. Protein and peptide were incubated at room temperature for 1 hour before the addition of anti-Flag-K and anti-6×HIS-D2 (CisBio, Bedford Mass.) HTRF reconstitution buffer (50 mM Phosphate pH 7, 0.8 Potassium Flouride, BSA 0.2%)^1 to a final concentration of 0.5 μM and 4 nM respectively. The reaction continued for an additional two hours at room temperature. The reaction was read on a TECAN F500 plate reader with settings recommended by CisBio. The ratio of donor to acceptor fluorescence was calculated. The resulting data was analyzed with Graphpad Prism 5.0. IC50 values were calculated for both proteins using the One Site Fit-LogIC50 equation and presented in the column “IC50 (nM) (HIF1α_p300 Displacement+CHAPS)” of Table 6. ^1 Cisbio USA, Bedford, Mass.; 61HISDLB (lot 007A), 61FG2KLB (024A), HTRF Buffer (62RB3RDF)
(TR-FRET usually uses a lanthanide donor and a delayed reading to cut background.)

The test system of another assay is HRE-bla ME-180 cells. Put plainly: Reporter gene assay (HRE-bla ME-180 HIF reporter, GeneBLAzer). The format is cell-based, human. The note with it: for EC50: 24 hour normoxia. The gist of the method:
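A FRET β-lactamase readout of HIF transcription was used. After compound treatment in 0.3% DMSO/media under normoxic conditions, 20 μl of 6× LiveBLAzer-FRET B/G (CCF4-AM) substrate was added. Plates sat 3 hr at room temperature in the dark and were read at 409 Ex/460Em and 409Ex/530Em on a Synergy 2. Inhibition was compared against DMSO vehicle controls, with chetomin as positive control.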
(A reporter such as luciferase makes a cellular process visible.)

Each structure is given as a SMILES string. Bridge positions count the residues as written; N and C are the ends. Square brackets hold non-standard residues; d marks the D form. Peptide text beside a SMILES is read from it. R8 = C=CCCCCCC[C@@](C)(N)C(=O)O; S5 = C=CCCC[C@](C)(N)C(=O)O; Nle = CCCC[C@H](N)C(=O)O Some results are limits rather than exact numbers.

A word on the IC50: it is the concentration that inhibits the measured activity by half. `CCCC[C@H](NC(=O)[C@H](CCC(=O)O)NC(=O)[C@@H](NC(=O)[C@@H](NC(=O)[C@H](CC(C)C)NC(=O)[C@]1(C)CCCC=CCCC[C@](C)(NC(=O)[C@H](CCC(=O)O)NC(=O)[C@H](CC(=O)O)NC(=O)[C@@H](NC(=O)[C@H](Cc2ccccc2)NC(=O)[C@H](CCCCN)NC(=O)[C@H](CCCCN)NC(C)=O)[C@@H](C)CC)C(=O)N[C@@H](C(C)C)C(=O)N[C@@H](CC(C)C)C(=O)N[C@@H](CCCC)C(=O)N1)C(C)C)[C@@H](C)CC)C(=O)N[C@@H](C)C(=O)N[C@@H](CC(C)C)C(N)=O` [SP-135] (Ac-KKFIDE[S5]VL[Nle][S5]LVIE[Nle]AL-NH2; staple 7-11): the IC50 in assay [1] was greater than 700 nM.

As for `CC[C@H](C)[C@H](NC(=O)[C@H](Cc1ccccc1)NC(C)=O)C(=O)N[C@@H](CC(=O)O)C(=O)N[C@@H](CCC(=O)O)C(=O)N[C@]1(C)CCCCCCC=CCCC[C@@](C)(C(=O)N[C@@H](CCC(=O)O)C(=O)N[C@@H](CCSC)C(=O)N[C@@H](C)C(=O)N[C@@H](C)C(=O)N[C@@H](C)C(N)=O)NC(=O)[C@H](C(C)C)NC(=O)[C@H](CC(C)C)NC(=O)[C@H](CO)NC(=O)[C@H](CCSC)NC(=O)[C@H](CC(C)C)NC(=O)[C@H](C(C)C)NC1=O` [SP-179] (Ac-FIDE[R8]VLMSLV[S5]EMAAA-NH2; staple 5-12), the IC50 in assay [1] was greater than 700 nM.

Consider `CCCC[C@H](NC(=O)[C@H](CCC(=O)O)NC(=O)[C@@H](NC(=O)[C@]1(C)CCCC=CCCC[C@](C)(NC(=O)[C@@H](NC(=O)[C@H](CCC(=O)O)NC(=O)[C@H](CCC(=O)O)NC(=O)[C@H](CC(=O)O)NC(=O)[C@@H](NC(=O)[C@H](CC(N)=O)NC(=O)[C@@H](NC(=O)[C@H](CCC(N)=O)NC(=O)[C@H](CC(=O)O)NC(=O)[C@H](CC(C)C)NC(=O)[C@H](C)NC(=O)[C@H](CCCNC(=N)N)NC(=O)[C@]2(C)CCCC=CCCC[C@](C)(NC(=O)[C@H](CCC(N)=O)NC(=O)[C@H](CC(C)C)NC(=O)[C@H](CC(C)C)NC(C)=O)C(=O)N[C@@H](CCC(=O)O)C(=O)N[C@@H](CCC(=O)O)C(=O)N[C@@H](CC(C)C)C(=O)N2)C(C)C)[C@@H](C)CC)C(C)C)C(=O)N[C@@H](CCCC)C(=O)N[C@@H](CO)C(=O)N[C@@H](CC(C)C)C(=O)N1)[C@@H](C)CC)C(=O)NCC(N)=O` [SP-302] (Ac-LLQ[S5]EEL[S5]RALDQVNIDEEV[S5][Nle]SL[S5]IE[Nle]G-NH2; staple 4-8, 21-25), for which the IC50 in assay [1] is greater than 700 nM.

Regarding `CCCC[C@H](NC(=O)[C@H](CCC(=O)O)NC(=O)[C@]1(C)CCCC=CCCCCCC[C@@](C)(NC(=O)[C@H](CCC(=O)O)NC(=O)[C@H](CC(=O)O)NC(=O)[C@@H](NC(=O)[C@H](Cc2ccccc2)NC(C)=O)[C@@H](C)CC)C(=O)N[C@@H](C(C)C)C(=O)N[C@@H](CC(C)C)C(=O)N[C@@H](CCSC)C(=O)N[C@@H](CO)C(=O)N[C@@H](CC(C)C)C(=O)N[C@@H](C(C)C)C(=O)N1)C(=O)NCC(N)=O` [SP-186] (Ac-FIDE[R8]VLMSLV[S5]E[Nle]G-NH2; staple 5-12), the IC50 in assay [1] was greater than 700 nM.

With `CC[C@H](C)[C@H](NC(=O)[C@H](Cc1ccccc1)NC(C)=O)C(=O)N[C@@H](CC(=O)O)C(=O)N[C@@H](CCC(=O)O)C(=O)N[C@]1(C)CCCCCCC=CCCC[C@@](C)(C(=O)N[C@@H](CCC(=O)O)C(=O)N[C@@H](CCSC)C(=O)NCC(N)=O)NC(=O)[C@H](C(C)C)NC(=O)[C@H](CC(C)C)NC(=O)[C@H](CO)NC(=O)[C@H](C)NC(=O)[C@H](CC(C)C)NC(=O)[C@H](C(C)C)NC1=O` [SP-184] (Ac-FIDE[R8]VLASLV[S5]EMG-NH2; staple 5-12), in assay [1], the IC50 is greater than 700 nM.

On to `CC[C@H](C)[C@H](NC(=O)[C@H](Cc1ccccc1)NC(C)=O)C(=O)N[C@@H](CC(=O)O)C(=O)N[C@@H](CCC(=O)O)C(=O)N[C@]1(C)CCCCCCC=CCCC[C@@](C)(C(=O)N[C@@H](CCC(=O)O)C(=O)N[C@@H](CCSC)C(=O)NCC(=O)N[C@@H](CC(C)C)C(N)=O)NC(=O)[C@H](C(C)C)NC(=O)[C@H](CC(C)C)NC(=O)[C@H](CO)NC(=O)[C@H](CCSC)NC(=O)[C@H](CC(C)C)NC(=O)[C@H](C(C)C)NC1=O` [SP-187] (Ac-FIDE[R8]VLMSLV[S5]EMGL-NH2; staple 5-12), for which the IC50 in assay [1] is greater than 700 nM.

For `CCCC[C@@H]1NC(=O)[C@H](CC(C)C)NC(=O)[C@](C)(NC(=O)[C@H](CCC(=O)O)NC(=O)[C@H](CCC(=O)O)NC(=O)[C@H](CC(=O)O)NC(=O)[C@@H](NC(=O)[C@H](CC(N)=O)NC(=O)[C@@H](NC(=O)[C@H](CCC(N)=O)NC(=O)[C@]2(C)CCCC=CCCC[C@](C)(NC(=O)[C@H](CC(C)C)NC(=O)[C@H](CCC(=O)O)NC(=O)[C@H](CCC(=O)O)NC(=O)CNC(=O)[C@H](CCC(N)=O)NC(=O)[C@H](CC(C)C)NC(=O)[C@H](CC(C)C)NC(C)=O)C(=O)N[C@@H](CCCNC(=N)N)C(=O)N[C@@H](C)C(=O)N[C@@H](CC(C)C)C(=O)N2)C(C)C)[C@@H](C)CC)CCCCCCC=CCCC[C@@](C)(C(=O)N[C@@H](CCCC)C(=O)NCC(N)=O)NC(=O)[C@H]([C@@H](C)CC)NC(=O)[C@H](C(C)C)NC(=O)[C@H](CC(C)C)NC(=O)[C@H](CO)NC1=O` [SP-331] (Ac-LLQGEEL[S5]RAL[S5]QVNIDEE[R8]L[Nle]SLVI[S5][Nle]G-NH2; staple 8-12, 20-27), in assay [1], the IC50 was greater than 700 nM.

For the molecule `CCCC[C@H](NC(=O)[C@H](CCC(=O)O)NC(=O)[C@@H](NC(=O)[C@@H](NC(=O)[C@H](CC(C)C)NC(=O)[C@]1(C)CCCC=CCCC[C@](C)(NC(=O)[C@H](CCC(=O)O)NC(=O)[C@H](CC(=O)O)NC(=O)[C@@H](NC(=O)[C@H](Cc2ccccc2)NC(C)=O)[C@@H](C)CC)C(=O)N[C@@H](C(C)C)C(=O)N[C@@H](CC(C)C)C(=O)N[C@@H](CCCC)C(=O)N1)C(C)C)[C@@H](C)CC)C(=O)N[C@@H](C)C(=O)N[C@@H](CC(C)C)C(=O)N[C@@H](CCCCN)C(N)=O` [SP-132] (Ac-FIDE[S5]VL[Nle][S5]LVIE[Nle]ALK-NH2; staple 5-9), the IC50 in assay [1] was greater than 700 nM.

The EC50 is the midpoint of the concentration-response curve. For the molecule `CC[C@H](C)[C@H](NC(=O)[C@H](CCCNC(=N)N)NC(=O)[C@H](CC(=O)O)NC(=O)[C@H](CC(C)C)NC(=O)CNC(=O)[C@H](CCSC)NC(=O)[C@]1(C)CCCC=CCCC[C@](C)(NC(=O)[C@H](CCSC)NC(=O)[C@H](CC(C)C)NC(=O)[C@@H](NC(=O)[C@H](CCC(=O)O)NC(C)=O)C(C)C)C(=O)N[C@@H](CC(C)C)C(=O)N[C@@H](C(C)C)C(=O)N[C@@H]([C@@H](C)CC)C(=O)N1)C(=O)N[C@@H](CCCCN)C(=O)N[C@@H](CCC(=O)O)C(=O)N[C@@H](CC(C)C)C(=O)N1CCC[C@H]1C(=O)N[C@@H](CCC(=O)O)C(=O)N[C@@H](CC(C)C)C(=O)N[C@@H](Cc1c[nH]c2ccccc12)C(=O)N[C@@H](CC(C)C)C(N)=O` [SP-89] (Ac-EVLM[S5]LVI[S5]MGLDRIKELPELWL-NH2; staple 5-9), in the assay on HRE-bla ME-180 cells, the “18 h Avg % max inhibition at top conc (HIF Rptr-24 hrs normoxia) (μM)” value (“18 h Avg % max inhibition at top conc” for short) is reported as “+++ (≤25 but <50: +++)” and the EC50 lay within 5 to 15 µM.

For `CCCC[C@H](NC(=O)[C@H](CC(C)C)NC(=O)[C@@H](NC(=O)[C@H](CCC(=O)O)NC(=O)[C@H](CCC(=O)O)NC(=O)[C@H](CC(=O)O)NC(=O)[C@@H](NC(=O)[C@H](Cc1ccccc1)NC(C)=O)[C@@H](C)CC)C(C)C)C(=O)N[C@@]1(C)CCCC=CCCC[C@@](C)(C(=O)N[C@@H](CCCC)C(=O)N[C@@H](C)C(=O)N[C@@H](CC(C)C)C(=O)N[C@@H](CC(=O)O)C(=O)N[C@@H](CCCNC(=N)N)C(=O)N[C@H](C(N)=O)[C@@H](C)CC)NC(=O)[C@H]([C@@H](C)CC)NC(=O)[C@H](C)NC(=O)[C@H](CC(C)C)NC1=O` [SP-18] (Ac-FIDEEVL[Nle][S5]LAI[S5][Nle]ALDRI-NH2; staple 9-13), in the assay on HRE-bla ME-180 cells, the “18 h Avg % max inhibition at top conc” value is reported as “++++ (≥50: ++++)” and the EC50 lay within 5 to 15 µM.

`CCCC[C@H](NC(=O)[C@H](CC(C)C)NC(=O)[C@@H](NC(=O)[C@H](CCC(=O)O)NC(=O)[C@H](CCC(=O)O)NC(=O)[C@H](CC(=O)O)NC(=O)[C@@H](NC(=O)[C@H](Cc1ccccc1)NC(C)=O)[C@@H](C)CC)C(C)C)C(=O)N[C@@]1(C)CCCC=CCCC[C@@](C)(C(=O)N[C@@H](CCCC)C(=O)N[C@@H](CCC(=O)O)C(=O)N[C@@H](CC(C)C)C(=O)N[C@@H](CC(=O)O)C(=O)N[C@@H](CCCNC(=N)N)C(=O)N[C@H](C(N)=O)[C@@H](C)CC)NC(=O)[C@H]([C@@H](C)CC)NC(=O)[C@H](C(C)C)NC(=O)[C@H](CC(C)C)NC1=O` [SP-39] (Ac-FIDEEVL[Nle][S5]LVI[S5][Nle]ELDRI-NH2; staple 9-13): in the assay with HRE-bla ME-180 cells, the “18 h Avg % max inhibition at top conc” value is listed as “+++ (≤25 but <50: +++)” and the EC50 lay in the range of 15 to 30 µM.

Values taken from patent publication US20190225650A1, “PEPTIDOMIMETIC MACROCYCLES AND USE THEREOF IN REGULATING HIF1ALPHA” (AILERON THERAPEUTICS, INC., priority 2013, published 2019).
